Assay [1] deals with T1, human heparanase (Homo sapiens, UniProt Q9Y251).
T1 construct: made in house; host or cells: insect cells
T1 sequence (Q9Y251 158-543 limits assumed): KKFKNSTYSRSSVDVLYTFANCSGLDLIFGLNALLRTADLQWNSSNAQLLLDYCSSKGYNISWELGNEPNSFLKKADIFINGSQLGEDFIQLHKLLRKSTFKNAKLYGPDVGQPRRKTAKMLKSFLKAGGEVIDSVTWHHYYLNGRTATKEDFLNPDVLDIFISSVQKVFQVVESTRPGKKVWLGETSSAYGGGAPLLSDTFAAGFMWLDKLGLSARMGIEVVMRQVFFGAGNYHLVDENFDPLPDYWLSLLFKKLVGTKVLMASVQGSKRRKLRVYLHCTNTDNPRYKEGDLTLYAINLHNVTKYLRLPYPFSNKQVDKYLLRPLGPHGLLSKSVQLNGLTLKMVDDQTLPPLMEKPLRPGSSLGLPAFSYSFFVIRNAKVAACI
T1 sequence (Q9Y251 36-109 limits assumed): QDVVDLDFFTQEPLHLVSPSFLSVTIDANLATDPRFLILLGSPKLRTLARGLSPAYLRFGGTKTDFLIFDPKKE
Nature of the assay: Heparanase assay (bFGF binding to heparan sulfate, plate ELISA). Format: biochemical. Particulars: human heparanase expressed in insect cells, pH 5.5, 2 h at 37° C.; read-out: Inhibition of Heparanase (IC50). Here is the method:
The assay is based upon the specific binding of basic fibroblast growth factor (bFGF) to heparan sulfate. […] Heparan sulfate will ordinarly adhere to plastic well plate surfaces. Following cleavage of high molecular weight heparan sulfate by heparanase, the smaller material generated will no longer adhere to the surface of a well plate. Thus, upon addition to the plate of bFGF, heparanase activity can be followed as a reduction in bFGF binding.
Nunc Maxisorp 96-well plates are coated for 16 h at room temperature with 100 μl/well 0.04 mg/ml heparan sulfate in PBS. The wells are then aspirated and blocked for 1 h with 200 μl/well 1% BSA-PBS. Following five washes with 0.01% BSA, 0.05% Tween20 PBS (wash buffer), 100 μl of recombinant human basic FGF (90 ng/ml in 0.1% BSA/PBS) is added per well and the plate is incubated at room temperature for 1 h.
The human heparanase used is expressed in insect cells. The wells are washed again with wash buffer and 100 μl of bFGF antibody-horse radish peroxidase conjugate is added. The plate is then incubated at room temperature for 1 h and subsequently washed five times with wash buffer. 100 μl of TMB peroxidase substrate is added and the colour allowed to develop for 10 min. The reaction is stopped with 50 μl 1M H2SO4 and the colour intensity is read at 450 nm on a plate reader.

Assay [2] relates to human endothelial cells. Nature of the assay: Angiogenesis assay (AngioKit, tubule formation, PECAM-1 staining). Format: cell-based. Particulars: Endothelial cell, 264 h, AngioKit co-culture, tubule formation on day 11, PECAM-1 staining relative to untreated control, read-out: Inhibition of angiogenesis (IC50). From the text:
A commercial angiogenesis assay for analysing the angiogenic or anti-angiogenic properties of test compounds (AngioKit catalogue no. ZHA-1000, TCS CellWorks Ltd, Buckingham, U.K) was used. In this assay, human endothelial cells were co-cultured with other human cells in a specifically designed medium. The endothelial cells initially form small islands within the culture matrix. They subsequently proliferate and then enter a migratory phase during which they move through the matrix to form threadlike tubule structures. These gradually join up (by 12–14 days) to form networks of […] tubules which closely resemble a capillary bed structure. These tubules stain positive for von Willebrand's Factor, Platelet Endothelial Cell Adhesion Molecule-1 (PECAM-1 or CD31) and Intercellular Adhesion Molecule-2 (ICAM-2).
The assay is supplied as growing cultures at the earliest stage of tubule formation in a 24 well plate format It is designed so that test compounds and conditioned media can be added to the cultures within individual wells. The resulting effect on tubule formation can then be monitored. Positive and negative test agents are provided in the kit, e.g. Vascular Endothelial Growth Factor (VEGF) and sumarin. All reagents were included as part of the kit and the assay was performed according to the protocol supplied by TCS CellWorks Ltd. Briefly, on day 1, fresh growth medium, medium plus control agent or medium plus test compound was added to the cells and the cultures were incubated at 37° C., 5% CO2. […] The specified medium was changed at days 4, 7 and 9 and the cells were monitored for growth. On day 11, the cells were washed with Dulbecco's Phosphate-Buffered Saline (PBS) and fixed using 70% ethanol (−20° C.) for 30 min at room temperature. After fixing, the cells were washed and treated with blocking buffer, 1% BSA in PBS. The cells were stained for PECAM-1 on the same day, following standard immunohistochemistry procedures well known to those skilled in the art, using mouse anti-human CD31 as the primary antibody and a goat anti-mouse IgG alkaline phosphate conjugate. Tubule formation was quantitatively assessed by measuring PECAM-1 positive staining using the image analysis program “Matrox inspector” to evaluate the percentage tubule staining relative to an untreated control.

Take `O=C(O)c1ccc2c(c1)C(=O)N(c1cccc(-c3nc4cc5ccccc5cc4o3)c1)C2=O` [Example 2, 2-[3-(Naphth[2,3-d]oxazol-2-yl)phenyl]-2,3-dihydro-1,3-dioxo-1H-isoindole-5-carboxylic acid]: the concentration for half-maximal inhibition (IC50) in assay [1] came out at 700 nM; in assay [2] it was 5000 nM.
For `CCCNc1ccc(N2C(=O)c3ccc(C(=O)O)cc3C2=O)cc1-c1nc2ccc(C)cc2o1` [Example 65, 2-[3-(6-Methylbenzoxazol-2-yl)-4-propylaminophenyl]-1,3-dioxo-2,3-dihydro-1H-isoindole-5-carboxylic acid] the same measures were 800 nM and 5000 nM.
In the case of `COc1ccc(N2C(=O)c3ccc(C(=O)O)cc3C2=O)cc1-c1nc2cc(-c3ccc4c(c3)OCO4)ccc2o1` [Example 105, 2-[4-Methoxy-5-[5-(3,4-methylenedioxyphenyl)benzoxazol-2-yl]phenyl]-1,3-dioxo-2,3-dihydro-1H-isoindole-5-carboxylic acid], the IC50 in assay [2] stood at 3000 nM.
Regarding `COc1ccc(-c2nc3cc(-c4ccccc4)ccc3o2)cc1N1C(=O)c2ccc(C(=O)O)cc2C1=O` [Example 9, 2-[2-Methoxy-5-(5-phenylbenzoxazol-2-yl)phenyl]-1,3-dioxo-2,3-dihydro-1H-isoindole-5-carboxylic acid], the IC50 in assay [2] stood at 1000 nM.
In the case of `CCCNc1ccc(N2C(=O)c3ccc(C(=O)O)cc3C2=O)cc1-c1nc2cc(-c3ccc(F)cc3)ccc2o1` [Example 115, 2-[4-Propylamino-5-[5-(4-fluorophenyl)benzoxazol-2-yl]phenyl]-1,3-dioxo-2,3-dihydro-1H-isoindole-5-carboxylic acid], the IC50 in assay [2] is 250 nM.
For the compound `COc1ccc(N2C(=O)c3ccc(C(=O)O)cc3C2=O)cc1-c1nc2cc(-c3cc(F)cc(F)c3)ccc2o1` [Example 104, 2-[4-Methoxy-5-[5-(3,5-difluorophenyl)benzoxazol-2-yl]phenyl]-1,3-dioxo-2,3-dihydro-1H-isoindole-5-carboxylic acid], in assay [2], the IC50 turned out to be 750 nM.
In the case of `COc1ccc(-c2ccc3oc(-c4ccc(OC)c(N5C(=O)c6ccc(C(=O)O)cc6C5=O)c4)nc3c2)cc1` [Example 27, 2-[2-Methoxy-5-[5-(4-methoxy)phenylbenzoxazol-2-yl]phenyl]-1,3-dioxo-2,3-dihydro-1H-isoindole-5-carboxylic acid], in assay [2], the IC50 came out at 15000 nM.
As for `CCCNc1ccc(N2C(=O)c3ccc(C(=O)O)cc3C2=O)cc1-c1nc2cc(-c3cc4ccccc4s3)ccc2o1` [Example 110, 2-[4-Propylamino-5-[5-(2-benzothiophenyl)benzoxazol-2-yl]phenyl]-1,3-dioxo-2,3-dihydro-1H-isoindole-5-carboxylic acid], the IC50 in assay [1] was 600 nM; in assay [2] it was 5000 nM.
Regarding `CCCNc1ccc(N2C(=O)c3ccc(C(=O)O)cc3C2=O)cc1-c1nc2ccc(F)cc2o1` [Example 66, 2-[3-(6-Fluorobenzoxazol-2-yl)-4-propylaminophenyl]-1,3-dioxo-2,3-dihydro-1H-isoindole-5-carboxylic acid], the IC50 in assay [1] is 800 nM; in assay [2], 2000 nM.
With `CCCNc1ccc(N2C(=O)c3ccc(C(=O)O)cc3C2=O)cc1-c1nc2cc(-c3ccc(OC(F)(F)F)cc3)ccc2o1` [Example 116, 2-[4-Propylamino-5-[5-(4-trifluoromethoxy)phenylbenzoxazol-2-yl]phenyl]-1,3-dioxo-2,3-dihydro-1H-isoindole-5-carboxylic acid], the concentration for half-maximal inhibition (IC50) in assay [2] amounted to 100 nM.
For `CCCNc1ccc(N2C(=O)c3ccc(C(=O)O)cc3C2=O)cc1-c1nc2cc(Br)cc(F)c2o1` [Example 71, 2-[3-(5-Bromo-7-fluorobenzoxazol-2-yl)-4-propylaminophenyl]-1,3-dioxo-2,3-dihydro-1H-isoindole-5-carboxylic acid], the half-inhibitory concentration (IC50) in assay [1] and in assay [2] was 500 nM in each case.
On to `COc1ccc(-c2nc3cc(-c4cc5ccccc5s4)ccc3o2)cc1N1C(=O)c2ccc(C(=O)O)cc2C1=O` [Example 92, 2-[2-Methoxy-5-[5-(2-benzothiophenyl)benzoxazol-2-yl]phenyl]-1,3-dioxo-2,3-dihydro-1H-isoindole-5-carboxylic acid], for which the concentration for half-maximal inhibition (IC50) in assay [1] was 400 nM; in assay [2], 200 nM.
For `COc1ccc(-c2nc3cc(-c4ccc(N(C)C)cc4)ccc3o2)cc1N1C(=O)c2ccc(C(=O)O)cc2C1=O` [Example 97, 2-[2-Methoxy-5-[5-(4-N,N-dimethylaminophenyl)benzoxazol-2-yl]phenyl]-1,3-dioxo-2,3-dihydro-1H-isoindole-5-carboxylic acid], the figures for the IC50 in assay [1] and in assay [2] were 800 nM and 2000 nM, respectively.
As to `COc1ccc(-c2nc3cc(-c4cc5ccccc5o4)ccc3o2)cc1N1C(=O)c2ccc(C(=O)O)cc2C1=O` [Example 15, 2-[2-Methoxy-5-[5-(benzofuran-2-yl)benzoxazol-2-yl]phenyl]-1,3-dioxo-2,3-dihydro-1H-isoindole-5-carboxylic acid], the 50% inhibitory concentration (IC50) in assay [1] was found to be 500 nM; in assay [2], 1000 nM.
For `CCCNc1ccc(N2C(=O)c3ccc(C(=O)O)cc3C2=O)cc1-c1nc2cc(-c3ccc(Cl)cc3)ccc2o1` [Example 112, 2-[4-Propylamino-5-[5-(4-chlorophenyl)benzoxazol-2-yl]phenyl]-1,3-dioxo-2,3-dihydro-1H-isoindole-5-carboxylic acid], in assay [2], the IC50 came to 2000 nM.
On to `CCCNc1ccc(N2C(=O)c3ccc(C(=O)O)cc3C2=O)cc1-c1nc2cc(-c3cc4ccccc4o3)ccc2o1` [Example 108, 2-[4-Propylamino-3-[5-(2-benzofuranyl)benzoxazol-2-yl]phenyl]-1,3-dioxo-2,3-dihydro-1H-isoindole-5-carboxylic acid], for which the figures for the IC50 in assay [1] and in assay [2] were 500 nM and 2000 nM, respectively.
`O=C(O)c1ccc2c(c1)C(=O)N(c1cccc(-c3nc4ccccc4o3)c1)C2=O` [Example 1, 2-[3-(Benzoxazol-2-yl)phenyl]-2,3-dihydro-1,3-dioxo-1H-isoindole-5-carboxylic acid]: the IC50 in assay [2] was determined as 40000 nM.

By IC50 is commonly meant the concentration needed to halve the response being measured.
